Our source for the Kd values is publication PMC4227753, “Mycobacterium smegmatis DinB2 misincorporates deoxyribonucleotides and ribonucleotides during templated synthesis and lesion bypass” (Nucleic Acids Research, 2014).

SMILES strings stand for the structures.

For this assay, the target named is T1, DinB2 (Mycolicibacterium smegmatis, UniProt A0QR77).
T1 construct: gene dinB
Put plainly: single-turnover primer extension, kobs vs [NTP], one-site fit. The format is biochemical. The conditions noted are these: 5 mM MgCl2, 10 mM Tris-HCl pH 7.5, 37 C, 1 uM DinB2, 50 nM 13-mer/18-mer primer-template.

T1 sequence (A0QR77 entry or part of it): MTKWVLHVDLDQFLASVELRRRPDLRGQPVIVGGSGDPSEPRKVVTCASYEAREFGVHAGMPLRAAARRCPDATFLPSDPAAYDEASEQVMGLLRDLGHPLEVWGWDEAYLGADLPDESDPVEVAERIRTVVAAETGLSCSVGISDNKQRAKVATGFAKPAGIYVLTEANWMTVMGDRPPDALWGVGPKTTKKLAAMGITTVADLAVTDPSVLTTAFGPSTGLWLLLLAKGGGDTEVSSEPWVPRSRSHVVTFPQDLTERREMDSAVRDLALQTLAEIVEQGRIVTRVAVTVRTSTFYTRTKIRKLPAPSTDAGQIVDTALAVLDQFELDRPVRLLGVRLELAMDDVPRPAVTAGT

As for `Nc1nc2c(ncn2[C@@H]2O[C@H](COP(=O)(O)OP(=O)(O)OP(=O)(O)O)[C@@H](O)[C@H]2O)c(=O)[nH]1` [GTP], the Kd (mispair: opposite template dT (oligo-dT5 tail)) turned out to be 386 µM.

For `O=c1ccn([C@@H]2O[C@H](COP(=O)(O)OP(=O)(O)OP(=O)(O)O)[C@@H](O)[C@H]2O)c(=O)[nH]1` [UTP], the affinity (mispair: opposite template dC (oligo-dC5 tail)), expressed as Kd, was 412 µM.
